According to PMC7413254 (Nature Communications, 2020):
Like-named read-outs stand apart in the source and are kept apart here.

How the values were obtained:
PfCRT^3D7 [1] = molecular target: T1, PfCRT^3D7 (Plasmodium falciparum, UniProt Q8IBZ9); assay: cell-based; type: cell-based; settings: PfCRT3D7 oocytes, total [3H]CQ transport, normalised to the oocyte type control
In short: (§1)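 Assay buffer ND96 (10 mM MES, 10 mM Tris-base) held at pH 5.5 to mimic vacuole lumen; uptake measured inward from this acidic medium over 1.5 h at 27.5 °C.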

PfNT1 = molecular target: T2, PfNT1 (Plasmodium falciparum, UniProt Q8IDM6); assay: cell-based; type: cell-based; settings: PfNT1 oocytes, total [3H]CQ transport, normalised to the oocyte type control
T2 construct: expressed in transfected cells; host or cells: Xenopus laevis oocytes (stage V-VI), cRNA-injected
In short: (§2)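 Transport measured in Xenopus oocytes expressing the transporters, 1.5 h at 27.5 °C in ND96 pH 5.5 unless noted. For trans-stimulation, VF-6 injected in 25 nL ND96 at pH 5.0–7.0 or Na^+-free (choline) buffer; intracellular levels based on ~400 nL oocyte volume. Ten oocytes per treatment, ≥4 experiments.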

PfCRT^Dd2 [2] = molecular target: T3, PfCRT^Dd2 (Plasmodium falciparum, UniProt Q9N623, A220S/I356T/K76T/M74I/N326S/N75E/Q271E/R371I); assay: cell-based; type: cell-based; settings: for Uptake of [3H]CQ (% PfCRTDd2 control), trans-stimulation / PfCRT-mediated [3H]CQ transport, trans-stimulation (% PfCRTDd2 control): PfCRTDd2 oocytes; for Uptake of [3H]CQ (% PfCRTDd2 control), trans-stimulation: total [3H]CQ transport, normalised to the oocyte type control; for PfCRT-mediated [3H]CQ transport, trans-stimulation (% PfCRTDd2 control): normalised to oocyte type control; for [3H]CQ transport (% PfCRTDd2 control), trans-stimulation, PfCRTDd2: PfCRT-mediated component (background subtracted), mean ± SEM, SEM
In short: as §2

PfCRT^3D7 [3] = molecular target: T1, PfCRT^3D7; assay: cell-based; type: cell-based; settings: PfCRT3D7 oocytes; for Uptake of [3H]CQ (% PfCRT3D7 control), trans-stimulation: total [3H]CQ transport, normalised to the oocyte type control; for PfCRT-mediated [3H]CQ transport, trans-stimulation (% PfCRT3D7 control): normalised to oocyte type control
In short: as §2

PfCRT^Ecu1110 [4] = molecular target: T4, PfCRT^Ecu1110 (Plasmodium falciparum, UniProt Q9N623, A220S/I356L/K76T/N326D); assay: cell-based; type: cell-based; settings: for Uptake of [3H]CQ (% PfCRTEcu1110 control), trans-stimulation / PfCRT-mediated [3H]CQ transport, trans-stimulation (% PfCRTEcu1110 control): PfCRTEcu1110 oocytes; for Uptake of [3H]CQ (% PfCRTEcu1110 control), trans-stimulation: total [3H]CQ transport, normalised to the oocyte type control; for PfCRT-mediated [3H]CQ transport, trans-stimulation (% PfCRTEcu1110 control): normalised to oocyte type control; for [3H]CQ transport (% PfCRTDd2 control), trans-stimulation, PfCRTEcu1110: PfCRT-mediated component (background subtracted), sheet title says normalised to PfCRTDd2 control, mean ± SEM, SEM
In short: as §2

non-expressing oocytes [5] = assay: cells; type: cell-based, Xenopus laevis; settings: non-expressing oocytes, total [3H]CQ transport, normalised to the oocyte type control
In short: as §1

PfCRT^Dd2 [6] = molecular target: T3, PfCRT^Dd2; assay: [3H]CQ uptake into Xenopus oocytes, cis-inhibition by unlabelled solute; type: cell-based; settings: PfCRTDd2 oocytes, background [3H]CQ accumulation subtracted, normalised to oocyte type control
In short: as §1

PfCRT^Ecu1110 [7] = molecular target: T4, PfCRT^Ecu1110; assay: as above; type: cell-based; settings: for Uptake of [3H]CQ (% PfCRTEcu1110 control), cis-inhibition / PfCRT-mediated [3H]CQ transport, cis-inhibition (% PfCRTEcu1110 control): PfCRTEcu1110 oocytes; for Uptake of [3H]CQ (% PfCRTEcu1110 control), cis-inhibition: total [3H]CQ transport, normalised to the oocyte type control; for PfCRT-mediated [3H]CQ transport, cis-inhibition (% PfCRTEcu1110 control): background [3H]CQ accumulation subtracted, normalised to oocyte type control; for [3H]CQ transport (% PfCRTEcu1110 control), cis-inhibition, PfCRTEcu1110: PfCRT-mediated component (background subtracted), sheet title says normalised to PfCRTDd2 control, mean ± SEM, SEM
In short: as §1

non-expressing oocytes [8] = type: cell-based, Xenopus laevis; settings: non-expressing oocytes, total [3H]CQ transport, normalised to the oocyte type control
In short: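 Oocytes (ten per treatment, ≥4 independent frogs/days) were preloaded by injecting VF-6 in 25 nL ND96 at pH 5.0, 5.5, 6.0 or 7.0, or Na^+-free choline buffer, then uptake run 1.5 h, 27.5 °C, ND96 pH 5.5 by default. Internal concentrations assumed ~400 nL oocyte volume.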

[9] = [test solute]i = 45 mM (30 mM for some solutes due to solubility)
[10] = [test solute]i = 5 mM (intracellular)
[11] = [test solute]i = 45 mM (intracellular; 30 mM for some solutes due to solubility)
[12] = [test solute]i = 5 mM (injected)

T1 sequence (Q8IBZ9 59-398): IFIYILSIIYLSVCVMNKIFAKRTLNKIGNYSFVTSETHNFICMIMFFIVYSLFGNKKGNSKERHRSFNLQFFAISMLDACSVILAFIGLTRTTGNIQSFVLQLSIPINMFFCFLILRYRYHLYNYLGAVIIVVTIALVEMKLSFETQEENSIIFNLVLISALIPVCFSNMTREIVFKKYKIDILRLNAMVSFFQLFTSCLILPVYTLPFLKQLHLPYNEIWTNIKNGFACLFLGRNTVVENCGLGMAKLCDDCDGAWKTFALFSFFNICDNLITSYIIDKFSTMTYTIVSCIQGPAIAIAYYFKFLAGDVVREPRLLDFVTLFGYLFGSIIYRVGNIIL
T4 sequence (Q9N623 whole entry A220S/I356L/K76T/N326D): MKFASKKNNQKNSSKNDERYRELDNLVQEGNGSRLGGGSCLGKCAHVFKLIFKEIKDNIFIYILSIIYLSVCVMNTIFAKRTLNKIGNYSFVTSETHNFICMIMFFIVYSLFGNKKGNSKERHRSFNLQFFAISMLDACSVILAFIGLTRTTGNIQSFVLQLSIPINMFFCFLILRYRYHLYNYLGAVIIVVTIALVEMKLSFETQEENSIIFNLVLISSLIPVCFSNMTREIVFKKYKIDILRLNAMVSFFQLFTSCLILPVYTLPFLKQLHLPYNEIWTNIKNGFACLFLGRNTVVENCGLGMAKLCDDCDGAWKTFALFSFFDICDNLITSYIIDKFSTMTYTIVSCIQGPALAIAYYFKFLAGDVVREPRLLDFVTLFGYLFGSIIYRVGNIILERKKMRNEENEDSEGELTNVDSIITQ
T3 sequence (Q9N623 whole entry A220S/I356T/K76T/M74I/N326S/N75E/Q271E/R371I): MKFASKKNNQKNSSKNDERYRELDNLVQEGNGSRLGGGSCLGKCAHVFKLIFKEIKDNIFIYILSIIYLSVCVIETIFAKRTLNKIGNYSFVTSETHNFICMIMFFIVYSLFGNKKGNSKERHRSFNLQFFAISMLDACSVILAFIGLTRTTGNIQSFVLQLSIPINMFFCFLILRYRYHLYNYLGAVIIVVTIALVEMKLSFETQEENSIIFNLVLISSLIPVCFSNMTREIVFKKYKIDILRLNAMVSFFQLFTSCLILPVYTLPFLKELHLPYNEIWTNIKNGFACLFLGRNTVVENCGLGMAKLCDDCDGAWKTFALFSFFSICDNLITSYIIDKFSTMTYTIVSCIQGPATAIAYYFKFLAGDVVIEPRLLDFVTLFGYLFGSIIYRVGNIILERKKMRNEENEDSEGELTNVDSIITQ
T2 sequence (Q8IDM6 whole entry): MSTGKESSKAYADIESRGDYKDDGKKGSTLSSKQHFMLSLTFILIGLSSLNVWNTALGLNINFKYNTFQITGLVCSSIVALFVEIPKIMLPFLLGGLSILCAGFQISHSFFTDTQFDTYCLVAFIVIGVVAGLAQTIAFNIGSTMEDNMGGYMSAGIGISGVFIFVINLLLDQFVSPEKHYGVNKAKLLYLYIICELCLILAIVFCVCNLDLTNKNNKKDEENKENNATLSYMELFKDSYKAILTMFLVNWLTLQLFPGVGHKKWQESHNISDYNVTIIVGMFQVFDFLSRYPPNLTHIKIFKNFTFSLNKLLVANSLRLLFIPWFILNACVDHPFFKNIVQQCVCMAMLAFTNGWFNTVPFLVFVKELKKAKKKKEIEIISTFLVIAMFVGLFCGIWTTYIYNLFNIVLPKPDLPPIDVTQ

For PENF [PEF-4], the “Uptake of [3H]CQ (% PfCRT3D7 control), cis-inhibition” value (PfCRT^3D7 [1]; [test solute] = 0.5 mM) was 100 ± 5.3 % PfCRT3D7 control, the “Uptake of [3H]CQ (% PfCRT3D7 control), cis-inhibition” value (PfCRT^3D7 [1]; [test solute] = 1 mM) was 98 ± 3.5 % PfCRT3D7 control and the “Uptake of [3H]CQ (% PfCRT3D7 control), cis-inhibition” value (PfCRT^3D7 [1]; [test solute] = 2 mM) was 100 ± 4.4 % PfCRT3D7 control. For the same substance, the “Uptake of [3H]CQ (% PfNT1 control), trans-stimulation” value (PfNT1; [test solute]i = 5 mM) was 101 ± 2.2 % PfNT1 control, the “Uptake of [3H]CQ (% PfNT1 control), trans-stimulation” value (PfNT1; [9]) was 99 ± 2.7 % PfNT1 control and the “Uptake of [3H]CQ (% PfCRTDd2 control), trans-stimulation” value (PfCRT^Dd2 [2]; [test solute]i = 5 mM) was 102 ± 2.2 % PfCRTDd2 control. For the same substance, the “Uptake of [3H]CQ (% PfCRTDd2 control), trans-stimulation” value (PfCRT^Dd2 [2]; [9]) was 99 ± 2.8 % PfCRTDd2 control, the “PfCRT-mediated [3H]CQ transport, trans-stimulation (% PfCRTDd2 control)” value (PfCRT^Dd2 [2]; [10]) was 100 ± 3.2 % PfCRTDd2 control and the “PfCRT-mediated [3H]CQ transport, trans-stimulation (% PfCRTDd2 control)” value (PfCRT^Dd2 [2]; [11]) was 97 ± 3.2 % PfCRTDd2 control. The “[3H]CQ transport (% PfCRTDd2 control), trans-stimulation, PfCRTDd2” value (PfCRT^Dd2 [2]; [12]) was 100 ± 3.2 % PfCRTDd2 control, the “[3H]CQ transport (% PfCRTDd2 control), trans-stimulation, PfCRTDd2” value (PfCRT^Dd2 [2]; [9]) was 97 ± 3.2 % PfCRTDd2 control and the “Uptake of [3H]CQ (% PfCRT3D7 control), trans-stimulation” value (PfCRT^3D7 [3]; [test solute]i = 5 mM) was 135 ± 6.8 % PfCRT3D7 control. For the same substance, the “Uptake of [3H]CQ (% PfCRT3D7 control), trans-stimulation” value (PfCRT^3D7 [3]; [9]) was 151 ± 8.0 % PfCRT3D7 control, the “PfCRT-mediated [3H]CQ transport, trans-stimulation (% PfCRT3D7 control)” value (PfCRT^3D7 [3]; [10]) was 128 ± 3.6 % PfCRT3D7 control and the “PfCRT-mediated [3H]CQ transport, trans-stimulation (% PfCRT3D7 control)” value (PfCRT^3D7 [3]; [11]) was 145 ± 4.7 % PfCRT3D7 control. For the same substance, the “Uptake of [3H]CQ (% PfCRTEcu1110 control), trans-stimulation” value (PfCRT^Ecu1110 [4]; [test solute]i = 5 mM) was 121 ± 3.2 % PfCRTEcu1110 control, the “Uptake of [3H]CQ (% PfCRTEcu1110 control), trans-stimulation” value (PfCRT^Ecu1110 [4]; [9]) was 132 ± 3.7 % PfCRTEcu1110 control and the “PfCRT-mediated [3H]CQ transport, trans-stimulation (% PfCRTEcu1110 control)” value (PfCRT^Ecu1110 [4]; [10]) was 118 ± 1.1 % PfCRTEcu1110 control. The “PfCRT-mediated [3H]CQ transport, trans-stimulation (% PfCRTEcu1110 control)” value (PfCRT^Ecu1110 [4]; [11]) was 128 ± 2.0 % PfCRTEcu1110 control, the “[3H]CQ transport (% PfCRTDd2 control), trans-stimulation, PfCRTEcu1110” value (PfCRT^Ecu1110 [4]; [12]) was 36 ± 1.6 % PfCRTEcu1110 control and the “[3H]CQ transport (% PfCRTDd2 control), trans-stimulation, PfCRTEcu1110” value (PfCRT^Ecu1110 [4]; [9]) was 39 ± 1.3 % PfCRTEcu1110 control. The “Uptake of [3H]CQ (% non-expressing oocyte control), cis-inhibition” value (non-expressing oocytes [5]; [test solute] = 0.5 mM) was 99 ± 5.8 % non-expressing oocyte control, the “Uptake of [3H]CQ (% non-expressing oocyte control), cis-inhibition” value (non-expressing oocytes [5]; [test solute] = 1 mM) was 98 ± 4.6 % non-expressing oocyte control and the “Uptake of [3H]CQ (% non-expressing oocyte control), cis-inhibition” value (non-expressing oocytes [5]; [test solute] = 2 mM) was 99 ± 4.4 % non-expressing oocyte control. The “PfCRT-mediated [3H]CQ transport, cis-inhibition (% PfCRTDd2 control)” value (PfCRT^Dd2 [6]; [test solute] = 0.5 mM) was 52 ± 2.0 % PfCRTDd2 control, the “PfCRT-mediated [3H]CQ transport, cis-inhibition (% PfCRTDd2 control)” value (PfCRT^Dd2 [6]; [test solute] = 1 mM) was 37 ± 2.1 % PfCRTDd2 control and the “PfCRT-mediated [3H]CQ transport, cis-inhibition (% PfCRTDd2 control)” value (PfCRT^Dd2 [6]; [test solute] = 2 mM) was 17 ± 0.3 % PfCRTDd2 control. For the same substance, the “Uptake of [3H]CQ (% PfCRTEcu1110 control), cis-inhibition” value (PfCRT^Ecu1110 [7]; [test solute] = 0.5 mM) was 55 ± 4.2 % PfCRTEcu1110 control, the “Uptake of [3H]CQ (% PfCRTEcu1110 control), cis-inhibition” value (PfCRT^Ecu1110 [7]; [test solute] = 1 mM) was 45 ± 4.7 % PfCRTEcu1110 control and the “Uptake of [3H]CQ (% PfCRTEcu1110 control), cis-inhibition” value (PfCRT^Ecu1110 [7]; [test solute] = 2 mM) was 34 ± 3.4 % PfCRTEcu1110 control. The “PfCRT-mediated [3H]CQ transport, cis-inhibition (% PfCRTEcu1110 control)” value (PfCRT^Ecu1110 [7]; [test solute] = 0.5 mM) was 49 ± 2.6 % PfCRTEcu1110 control, the “PfCRT-mediated [3H]CQ transport, cis-inhibition (% PfCRTEcu1110 control)” value (PfCRT^Ecu1110 [7]; [test solute] = 1 mM) was 40 ± 3.5 % PfCRTEcu1110 control and the “PfCRT-mediated [3H]CQ transport, cis-inhibition (% PfCRTEcu1110 control)” value (PfCRT^Ecu1110 [7]; [test solute] = 2 mM) was 28 ± 2.1 % PfCRTEcu1110 control. For the same substance, the “[3H]CQ transport (% PfCRTEcu1110 control), cis-inhibition, PfCRTEcu1110” value (PfCRT^Ecu1110 [7]; [test solute] = 0.5 mM) was 15 ± 0.1 % PfCRTEcu1110 control, the “[3H]CQ transport (% PfCRTEcu1110 control), cis-inhibition, PfCRTEcu1110” value (PfCRT^Ecu1110 [7]; [test solute] = 1 mM) was 13 ± 0.3 % PfCRTEcu1110 control and the “[3H]CQ transport (% PfCRTEcu1110 control), cis-inhibition, PfCRTEcu1110” value (PfCRT^Ecu1110 [7]; [test solute] = 2 mM) was 9.0 ± 0.01 % PfCRTEcu1110 control. The “Uptake of [3H]CQ (% non-expressing oocyte control), trans-stimulation” value (non-expressing oocytes [8]; [test solute]i = 5 mM) was 97 ± 3.5 % non-expressing oocyte control and the “Uptake of [3H]CQ (% non-expressing oocyte control), trans-stimulation” value (non-expressing oocytes [8]; [9]) was 100 ± 3.2 % non-expressing oocyte control.
